{"source": "patent US20080181866A1", "about": "“Amido Anti-viral Compounds” (Genelabs Technologies, Inc., priority 2006, published 2008)"}
{"test_system": "HCV replication", "test": "HCV replicon assay (luciferase) in ET (Huh-lucubineo-ET) cell line", "assay_type": "cell-based", "settings": "Hepatitis C virus, tested at 5 μM; ET replicon cells; luciferase activity measured 48-72 hours later; relative to no compound control", "procedure,_shortened": "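Huh-lucubineo-ET cells stably carry a subgenomic replicon with a firefly luciferase–ubiquitin–neo fusion and adaptive NS3-5B mutations; they were seeded 24 h before compound addition (0.1 nM–50 μM, 0.5% DMSO). Luciferase was read 48–72 h later as % inhibition versus no-compound control, with parallel WST-1 cytotoxicity. EC50 and TC50 came from 10-point 2-fold dilutions fitted to a Hill equation.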", "units": {"inhibition at 5 µM": "%"}}
{"compound": "CC(C)(C)OC(=O)N1C[C@@H](c2ccccc2)C[C@H]1C(=O)Nc1nc(-c2ccc(C(=O)NC3CC3)cc2)cs1", "note": "[Compound 7027, (2S,4R)-2-[4-(4-Cyclopropylcarbamoyl-phenyl)-thiazol-2-ylcarbamoyl]-4-phenyl-pyrrolidine-1-carboxylic acid tert-butyl ester]", "inhibition at 5 µM": 6.9}
{"compound": "O=C(NC1CC1)c1ccc(-c2csc(NC(=O)[C@@H]3CS[C@H](c4cccnc4)N3C(=O)OCc3ccccc3)n2)cc1", "note": "[Compound 7028, (2R,4R)-4-[4-(4-Cyclopropylcarbamoyl-phenyl)-thiazol-2-ylcarbamoyl]-2-pyridin-3-yl-thiazolidine-3-carboxylic acid benzyl ester]", "inhibition at 5 µM": 100}
{"compound": "CC(C)(C)OC(=O)N1C[C@H](c2ccccc2)C[C@H]1C(=O)Nc1nc(-c2ccc(C(=O)NC3CC3)cc2)cs1", "note": "[Compound 7038, (2S,4S)-2-[4-(4-Cyclopropylcarbamoyl-phenyl)-thiazol-2-ylcarbamoyl]-4-phenyl-pyrrolidine-1-carboxylic acid tert-butyl ester]", "inhibition at 5 µM": 48.4}
{"compound": "O=C(NC1CC1)c1ccc(-c2csc(NC(=O)[C@@H]3Cc4ccccc4N3C(=O)OCc3ccccc3)n2)cc1", "note": "[Compound 7039, (S)-2-[4-(4-Cyclopropylcarbamoyl-phenyl)-thiazol-2-ylcarbamoyl]-2,3-dihydro-indole-1-carboxylic acid benzyl ester]", "inhibition at 5 µM": 100}
{"compound": "C=C1C[C@@H](C(=O)Nc2nc(-c3ccc(C(=O)NC4CC4)cc3)cs2)N(C(=O)OC(C)(C)C)C1", "note": "[Compound 7040, (S)-2-[4-(4-Cyclopropylcarbamoyl-phenyl)-thiazol-2-ylcarbamoyl]-4-methylene-pyrrolidine-1-carboxylic acid tert-butyl ester]", "inhibition at 5 µM": 89.9}
{"compound": "CC(C)(C)NC(=O)c1ccc(-c2csc(NC(=O)[C@@H]3CSC(c4ccncc4)N3C(=O)OCc3ccccc3)n2)cc1", "note": "(stereo partly shown) [Compound 7041, 4-[4-(4-tert-Butyl-carbamoyl-phenyl)-thiazol-2-ylcarbamoyl]-2-pyridin-4-yl-thiazolidine-3-carboxylic acid benzyl ester]", "inhibition at 5 µM": 100}
{"compound": "O=C(NC1CC1)c1ccc(-c2csc(NC(=O)[C@@H]3C[C@@H]4CCCC[C@@H]4N3C(=O)OCc3ccccc3)n2)cc1", "note": "[Compound 7043, (2S,3aS,7aS)-2-[4-(4-Cyclopropylcarbamoyl-phenyl)-thiazol-2-ylcarbamoyl]-octahydro-indole-1-carboxylic acid benzyl ester]", "inhibition at 5 µM": 100}
{"compound": "O=C(NC1CC1)c1ccc(-c2csc(NC(=O)[C@@H]3CSC(c4ccccc4)N3C(=O)OCc3ccccc3)n2)cc1", "note": "(stereo partly drawn) [Compound 7044, (R)-4-[4-(4-Cyclopropylcarbamoyl-phenyl)-thiazol-2-ylcarbamoyl]-2-phenyl-thiazolidine-3-carboxylic acid benzyl ester]", "inhibition at 5 µM": 98}
{"compound": "O=C(NC1CC1)c1ccc(-c2csc(NC(=O)[C@@H]3CC[C@H](c4ccc(CN5CCOCC5)cc4)N3C(=O)OCc3ccccc3)n2)cc1", "note": "[Compound 7045, (2S,5R)-2-[4-(4-Cyclopropylcarbamoyl-phenyl)-thiazol-2-ylcarbamoyl]-5-(4-morpholin-4-ylmethyl-phenyl)-pyrrolidine-1-carboxylic acid benzyl ester]", "inhibition at 5 µM": 100}
{"compound": "O=C(NC1CC1)c1ccc(-c2csc(NC(=O)[C@@H]3COC(c4ccccc4)N3C(=O)OCc3ccccc3)n2)cc1", "note": "(stereo partly drawn) [Compound 7046, (S)-4-[4-(4-Cyclopropylcarbamoyl-phenyl)-thiazol-2-ylcarbamoyl]-2-phenyl-oxazolidine-3-carboxylic acid benzyl ester]", "inhibition at 5 µM": 99.1}
{"compound": "O=C(NC1CC1)c1ccc(-c2csc(NC(=O)[C@@H]3CSC(c4cc[n+]([O-])cc4)N3C(=O)OCc3ccccc3)n2)cc1", "note": "(stereo partly drawn) [Compound 7050, (R)-4-[4-(4-Cyclopropylcarbamoyl-phenyl)-thiazol-2-ylcarbamoyl]-2-(1-oxy-pyridin-4-yl)-thiazolidine-3-carboxylic acid benzyl ester]", "inhibition at 5 µM": 100}
{"compound": "O=C(NC1CC1)c1ccc(-c2csc(NC(=O)[C@@H]3CC[C@H](c4ccccc4)N3C(=O)OCc3ccccc3)n2)cc1", "note": "[Compound 7052, (2S,5R)-2-[4-(4-Cyclopropylcarbamoyl-phenyl)-thiazol-2-ylcarbamoyl]-5-phenyl-pyrrolidine-1-carboxylic acid benzyl ester]", "inhibition at 5 µM": 98.9}
{"compound": "O=C(Nc1nc(-c2ccccc2)cs1)[C@@H]1CS[C@H](c2cccnc2)N1C(=O)OCc1ccccc1", "note": "[Compound 7058, (2R,4R)-4-(4-Phenyl-thiazol-2-ylcarbamoyl)-2-pyridin-3-yl-thiazolidine-3-carboxylic acid benzyl ester]", "inhibition at 5 µM": 99.9}
{"compound": "O=C(Cc1ccc(NC(=O)[C@@H]2CSC(c3ccncc3)N2C(=O)OCc2ccccc2)cc1)NC1CC1", "note": "(stereo partly shown) [Compound 7068, 4-(4-Cyclopropylcarbamoylmethyl-phenylcarbamoyl)-2-pyridin-4-yl-thiazolidine-3-carboxylic acid benzyl ester]", "inhibition at 5 µM": 6}
{"compound": "O=C(NC1CC1)c1ccc(-c2csc(NC(=O)[C@@H]3CSC(C4CCOCC4)N3C(=O)[C@@H]3CCCO3)n2)cc1", "note": "(stereo partly shown) [Compound 7069, 3-(Tetrahydro-furan-2-carbonyl)-2-(tetrahydro-pyran-4-yl)-thiazolidine-4-carboxylic acid [4-(4-cyclopropylcarbamoyl-phenyl)-thiazol-2-yl]-amide]", "inhibition at 5 µM": 98.8}
{"compound": "CC(C)(C)C(=O)N1C(C2CCOCC2)SC[C@H]1C(=O)Nc1nc(-c2ccc(C(=O)NC3CC3)cc2)cs1", "note": "(stereo partly shown) [Compound 7070, 3-(2,2-Dimethyl-propionyl)-2-(tetrahydro-pyran-4-yl)-thiazolidine-4-carboxylic acid [4-(4-cyclopropylcarbamoyl-phenyl)-thiazol-2-yl]-amide]", "inhibition at 5 µM": 96.1}
{"compound": "O=C(NC1CC1)c1ccc(-c2csc(NC(=O)[C@@H]3CSC(CCCCC(=O)N4CCOCC4)N3C(=O)OCc3ccccc3)n2)cc1", "note": "(stereo partly shown) [Compound 7071, 4-[4-(4-Cyclopropylcarbamoyl-phenyl)-thiazol-2-ylcarbamoyl]-2-(5-morpholin-4-yl-5-oxo-pentyl)-thiazolidine-3-carboxylic acid benzyl ester]", "inhibition at 5 µM": 100}
{"compound": "O=C(Cc1cccc(NC(=O)[C@@H]2CSC(c3ccncc3)N2C(=O)OCc2ccccc2)c1)Nc1ccccc1", "note": "(stereo partly shown) [Compound 7072, 4-(3-Phenylcarbamoylmethyl-phenylcarbamoyl)-2-pyridin-4-yl-thiazolidine-3-carboxylic acid benzyl ester]", "inhibition at 5 µM": 80.8}
{"compound": "O=C(NC1CC1)c1ccc(-c2csc(NC(=O)[C@@H]3CSC(C4CCOCC4)N3C(=O)[C@H]3CCCO3)n2)cc1", "note": "(stereo partly shown) [Compound 7074, 3-(Tetrahydro-furan-2-carbonyl)-2-(tetrahydro-pyran-4-yl)-thiazolidine-4-carboxylic acid [4-(4-cyclopropylcarbamoyl-phenyl)-thiazol-2-yl]-amide]", "inhibition at 5 µM": 99}
{"compound": "O=C(NCc1ccccc1)c1ccc(NC(=O)[C@@H]2CSC(c3ccncc3)N2C(=O)OCc2ccccc2)cc1", "note": "(stereo partly shown) [Compound 7075, 4-(4-Benzylcarbamoyl-phenylcarbamoyl)-2-pyridin-4-yl-thiazolidine-3-carboxylic acid benzyl ester]", "inhibition at 5 µM": 21.3}
{"compound": "O=C(Nc1ccccc1)c1ccc(NC(=O)[C@@H]2CSC(c3ccncc3)N2C(=O)OCc2ccccc2)cc1", "note": "(stereo partly shown) [Compound 7076, 4-(4-Phenylcarbamoyl-phenylcarbamoyl)-2-pyridin-4-yl-thiazolidine-3-carboxylic acid benzyl ester]", "inhibition at 5 µM": 3.9}
{"compound": "CC(C)(C)OC(=O)NCc1ccc(NC(=O)[C@@H]2CSC(c3ccncc3)N2C(=O)OCc2ccccc2)cc1", "note": "(stereo partly shown) [Compound 7078, 4-[4-(tert-Butoxycarbonylamino-methyl)-phenylcarbamoyl]-2-pyridin-4-yl-thiazolidine-3-carboxylic acid benzyl ester]", "inhibition at 5 µM": 35.6}
{"compound": "Cc1cccc2[nH]c(Cc3ccc(NC(=O)[C@@H]4CSC(c5ccncc5)N4C(=O)OCc4ccccc4)cc3)nc12", "note": "(stereo partly shown) [Compound 7084, 4-[4-(4-Methyl-1H-benzoimidazol-2-ylmethyl)-phenylcarbamoyl]-2-pyridin-4-yl-thiazolidine-3-carboxylic acid benzyl ester]", "inhibition at 5 µM": 14.2}
{"compound": "O=C(NC1CC1)c1ccc(-c2csc(NC(=O)[C@@H]3CSC(C4CCOCC4)N3C(=O)C3CC3)n2)cc1", "note": "(stereo partly shown) [Compound 7085, 3-Cyclopropanecarbonyl-2-(tetrahydro-pyran-4-yl)-thiazolidine-4-carboxylic acid [4-(4-cyclopropylcarbamoyl-phenyl)-thiazol-2-yl]-amide]", "inhibition at 5 µM": 99.6}
{"compound": "O=C(NC1CC1)c1ccc(-c2csc(NC(=O)[C@@H]3CSC(c4ccc(CN5CCOCC5)cc4)N3C(=O)OCc3ccccc3)n2)cc1", "note": "(stereo partly shown) [Compound 7087, 4-[4-(4-Cyclopropylcarbamoyl-phenyl)-thiazol-2-ylcarbamoyl]-2-(4-morpholin-4-ylmethyl-phenyl)-thiazolidine-3-carboxylic acid benzyl ester]", "inhibition at 5 µM": 99.6}
{"compound": "CC(C)(C)OC(=O)N1C(C2CCOCC2)SC[C@H]1C(=O)Nc1nc(-c2ccc(C(=O)NC3CC3)cc2)cs1", "note": "(stereo partly shown) [Compound 7090, 4-[4-(4-Cyclopropylcarbamoyl-phenyl)-thiazol-2-ylcarbamoyl]-2-(tetrahydropyran-4-yl)-thiazolidine-3-carboxylic acid tert-butyl ester]", "inhibition at 5 µM": 99.7}
{"compound": "Cn1ccnc1C(=O)N1C(C2CCOCC2)SC[C@H]1C(=O)Nc1nc(-c2ccc(C(=O)NC3CC3)cc2)cs1", "note": "(stereo partly shown) [Compound 7092, 3-(1-Methyl-1H-imidazole-2-carbonyl)-2-(tetrahydro-pyran-4-yl)-thiazolidine-4-carboxylic acid [4-(4-cyclopropylcarbamoyl-phenyl)-thiazol-2-yl]-amide]", "inhibition at 5 µM": 89.4}
{"compound": "O=C(NC1CC1)c1ccc(-c2csc(NC(=O)[C@@H]3CSC4(CCCCC4)N3C(=O)OCc3ccccc3)n2)cc1", "note": "[Compound 7093, 3-[4-(4-Cyclopropylcarbamoyl-phenyl)-thiazol-2-ylcarbamoyl]-1-thia-4-aza-spiro[4.5]decane-4-carboxylic acid benzyl ester]", "inhibition at 5 µM": 100}
